Values quoted from earlier work, collected in patent publication US8288445B2, “Stable pharmaceutical products” (Nycomed GmbH, priority 2003, dated 2012).

Conditions: disclosed in U.S. Pat. No. 6,268,533 and WO 00/21487

SMILES: COc1ccc(C[C@@H](C)NC[C@H](O)c2ccc(O)c(NC=O)c2)cc1.O=C(O)C(O)C(O)C(=O)O [L-(+)-tartrate salt of R,R-formoterol]
- hygroscopicity: non-hygroscopic
